Source: patent US20220304308A1, “METHOD FOR CONTROLLING GROWTH OF GLYPHOSATE-TOLERANT PLANTS” (JIANGSU ROTAM CHEMISTRY CO., LTD., priority 2019, published 2022)

Key:
Format in all cases: in vivo
[1] = test system: glyphosate-resistant sourgrass (Digitaria insularis); assay: Post-emergence treatment test on glyphosate-resistant sourgrass, nicosulfuron WG formulations (Example 1); details: conclusion from Table 2
Method: Post-emergence treatment tests were conducted on glyphosate-resistant sourgrass (Digitaria insularis). Sourgrass plants were planted and kept in a greenhouse at about 24° C. and 85% humidity throughout the experiment.
The WG formulations were each diluted with water prior to treatment of the sourgrass plants.
The herbicidal efficiency of each formulation as determined by visual observation at each of 7, 14 and 20 days after the treatment.
The the efficacy of each formulation is represented by a comparison between the treated plants and the Control plants. A score of 0% represents no herbicidal activity. A score of 100% represents complete herbicidal activity (plants completely killed).

soybean plants [2] = assay: Phytotoxicity tests on soybean sown 20 days after treatment under conditions X1-X4 (Example 4); details: Nicosulfuron 75 g/ha, Glyphosate 0 g/ha, 150 L/ha, evaluated 7 days after emergence, EWRC scale 1-9
Method: Sourgrass plants were planted and kept at the conditions summarised in Table 7 below throughout the experiment:
The WG formulations were dispersed in water and applied to the locus of the sourgrass plants at a volumetric rate of 150 L/ha.
Soybean seeds were sown in a greenhouse in the treated plots 20 days after the treatment with the herbicide(s). The period of 20 days was determined by applying Formula I above to the parameters set out above.
(§1) In order to quantify the damage caused to the soybean plants, visual analysis of phytotoxicity was conducted and recorded based on the scale proposed by the European Weed Research Council. The extent of damage on this scale varies from 1 to 9, where “1” represents absence of symptoms and “9” represents total plant destruction.
Evaluation was conducted 7 days after emergence of the soybean plants.

soybean plants [3] = assay: Phytotoxicity test on soybean sown in treated plots at different times after treatment (Example 3); parameters: key: EWRC scale 1-9: 1 = no symptoms, 9 = total plant destruction
Method: Sourgrass plants were planted and kept at about 24° C. and 85% humidity throughout the experiment.
The sourgrass plants were treated with water dispersible granule (WG) formulations of nicosulfuron and/or glyphosate as summarised in Table 5.
Soybean seeds were sown separately in each of the treated plots 1 day, 7 days, 14 days, 20 days and 30 days after the treatment.
as §1
Evaluation was conducted 7 days, 14 days, 21 days and 28 days after emergence of the soybean plants.

COc1cc(OC)nc(NC(=O)NS(=O)(=O)c2ncccc2C(=O)N(C)C)n1 [Nicosulfuron, 2-(4,6-dimethoxypyrimidin-2-ylcarbamoylsulfamoyl)-N,N-dimethylnicotinamide]
control of sourgrass plants (in words) [1]: effective | Phytotoxicity Level (soybean plants [2]; conditions X1 (17 ° C., 95% humidity, 8.5 hr sunlight per day), soybean sown 20 days after treatment): 1 | Phytotoxicity Level (soybean plants [2]; conditions X2 (24 ° C., 85% humidity, 9 hr sunlight per day), sown 20 days after treatment): 1 | Phytotoxicity Level (soybean plants [2]; conditions X3 (32 ° C., 65% humidity, 9.5 hr sunlight per day), sown 20 days after treatment): 1 | Phytotoxicity Level (soybean plants [2]; conditions X4 (37 ° C., 30% humidity, 10 hr sunlight per day), sown 20 days after treatment): 1 | Phytotoxicity Level (soybean plants [3]; Nicosulfuron 50 g/ha, Glyphosate 0 g/ha (A3 of Table 5), soybean sown 1 day after treatment, EWRC scale 1 (absence of symptoms) to 9 (total plant destruction)): 4 | Phytotoxicity Level (soybean plants [3]; Nicosulfuron 50 g/ha, Glyphosate 0 g/ha (A3 of Table 5), soybean sown 7 days after treatment, EWRC scale 1-9): 3 | Phytotoxicity Level (soybean plants [3]; Nicosulfuron 50 g/ha, Glyphosate 0 g/ha (A3 of Table 5), soybean sown 14 days after treatment, EWRC scale 1-9): 2 | Phytotoxicity Level (soybean plants [3]; Nicosulfuron 50 g/ha, Glyphosate 0 g/ha (A3 of Table 5), soybean sown 20 days after treatment, EWRC scale 1-9): 1 | Phytotoxicity Level (soybean plants [3]; Nicosulfuron 50 g/ha, Glyphosate 0 g/ha (A3 of Table 5), soybean sown 30 days after treatment, EWRC scale 1-9): 1 | Phytotoxicity Level (soybean plants [3]; Nicosulfuron 75 g/ha, Glyphosate 0 g/ha (C3 of Table 5), soybean sown 1 day after treatment, EWRC scale 1-9): 4 | Phytotoxicity Level (soybean plants [3]; Nicosulfuron 75 g/ha, Glyphosate 0 g/ha (C3 of Table 5), soybean sown 7 days after treatment, EWRC scale 1-9): 4 | Phytotoxicity Level (soybean plants [3]; Nicosulfuron 75 g/ha, Glyphosate 0 g/ha (C3 of Table 5), soybean sown 14 days after treatment, EWRC scale 1-9): 2 | Phytotoxicity Level (soybean plants [3]; Nicosulfuron 75 g/ha, Glyphosate 0 g/ha (C3 of Table 5), soybean sown 20 days after treatment, EWRC scale 1-9): 1 | Phytotoxicity Level (soybean plants [3]; Nicosulfuron 75 g/ha, Glyphosate 0 g/ha (C3 of Table 5), soybean sown 30 days after treatment, EWRC scale 1-9): 1
